Data from patent US20250059264A1, “METHOD OF TREATING STROKE” (AlaMab Therapeutics, Inc., priority 2023, published 2025).

Experiments:
[1] = test system: mouse model of stroke induced by middle cerebral artery occlusion (MCAO); test: Rotarod test, time of treatment (Example 2); assay type: in vivo, ICR mice
Description: (§1) The administration of 10 mg/kg butylphthalide and 50 mg/kg ALMB-0166 was started 30 minutes, 2 hours, or 6 hours after the MCAO procedure of the mice. Ninety-six (96) ICR mice received behavioral training after adaptive feeding period and before the operation to establish stroke models. The behavioral training included beam-walking and rotarod test. The experimental mice were then randomly divided into 8 groups according to the values of the body weight, with 12 mice in each test group as described in Table 1. The mice were fasted overnight before modeling and were anesthetized with isoflurane. Right middle cerebral artery occlusion (MCAO) was induced in mice using the intraluminal filament technique to mimic focal cerebral ischemic stroke. After 1 hr, reperfusion was allowed by removing the occlusion. Administration of each treatment was performed 0.5 hrs, 2 hrs, or 6 hrs after the infarction. The neurological function score was evaluated at 24 hrs and 48 hrs after reperfusion, as was assessed by beam-walking, grip strength, and rotarod tests. At 48 hrs after reperfusion, the whole brain tissue of all rats was harvested to assess the cerebral infarct area by TTC staining, as well as to measure brain volume and brain water content, two indicators of acute cerebral edema.

[2] = test system: mouse model of stroke induced by middle cerebral artery occlusion (MCAO); test: Brain water content, time of treatment (Example 2); assay type: in vivo, ICR mice; settings: 48 h after reperfusion
Description: as §1

[3] = test system: mouse model of stroke induced by middle cerebral artery occlusion (MCAO); test: Brain volume, time of treatment (Example 2); assay type: in vivo, ICR mice; settings: 48 h after reperfusion
Description: as §1

[4] = test system: rat model of stroke induced by middle cerebral artery occlusion (MCAO); test: Beam-walking test (Example 3); assay type: in vivo, SD rats; settings: 10 mg/kg (table label) i.v. Bid from 30 min after infarction
Description: (§2) The administration of the respective treatments was started 30 minutes after the MCAO procedure of the rats.
(§3) Seventy-two (72) SD rats received behavioral training after adaptive feeding period and before the operation to establish stroke models. The behavioral training included beam-walking, grip and rotarod tests. The experimental rats were then randomly divided into 6 groups according to the body weight, with 12 rats in each test group as described in Table 15.
(§4) The rats were fasted overnight before modeling and were anesthetized with isoflurane. Right middle cerebral artery occlusion (MCAO) was induced in each rat using the intraluminal filament technique to mimic focal cerebral ischemic stroke. After 2 hrs, reperfusion was allowed by removing the occlusion.
(§5) Administration of each treatment was performed 0.5 h after the infarction. The rats were scored by the Longa method at 24-hours post-procedure. The neurological function was evaluated at 24-hr and 48-hr after reperfusion, and was assessed by beam-walking, grip strength, and rotarod tests. At 48 h after reperfusion, the whole brain tissue of all rats was harvested to assess the cerebral infarct area by TTC staining, as well as to measure brain volume and brain water content, two indicators of acute cerebral edema.

[5] = test system: rat model of stroke induced by middle cerebral artery occlusion (MCAO); test: Rotarod test (Example 3); assay type: in vivo, SD rats; settings: 10 mg/kg (table label) i.v. Bid from 30 min after infarction
Description: as §2, §3, §4, §5

[6] = test system: rat model of stroke induced by middle cerebral artery occlusion (MCAO); test: Beam-walking test, dosing regimen (Example 4); assay type: in vivo, SD rats; settings: 10 mg/kg (table label) i.v. Bid from 30 min after infarction
Description: (§6) The first administration of the respective treatments was started 30 minutes (Day 1 of study) after the MCAO procedure of the rats. For the butylphthalide group, subsequent doses were administered every day after for 14 days. For the ALMB-0166 test groups, a second dose of the antibody was administered at Day 4 post-stroke (Day 4 of the study). Thirty-six (36) SD rats received behavioral training after adaptive feeding period and before the operation to establish stroke models. The behavioral training included beam-walking, grip and rotarod tests. The experimental rats were then randomly divided into 6 groups according to the body weight, with 6 rats in each test group as described in Table 15. The rats were fasted overnight before modeling and were anesthetized with isoflurane. Right middle cerebral artery occlusion (MCAO) was induced in each rat using the intraluminal filament technique to mimic focal cerebral ischemic stroke. After 2 hrs, reperfusion was allowed by removing the occlusion. Administration of butylphthalide was performed 0.5 hrs after the infarction, and every day after the operation (14 days). Administration of ALMB-0166 and the vehicle treatment was performed at 0.5 hrs and at Day 4 after the operation. The body weight of rats was recorded before the operation (Day 0 of study) and on Days 2, 4, 7, and 11 after the procedure. The rats were scored by the Longa method at Day 1 (24-hours) post-procedure. The neurological function was evaluated at Days 1, 2, 4, 7, and 14 after the procedure, and was assessed by beam-walking, grip strength, and rotarod tests. At Day 14 after reperfusion, the whole brain tissue of all rats was harvested to assess the cerebral infarct area by TTC staining. The total infarct volume was determined, and the infarct volume ratio was calculated by dividing the total infarct volume by the whole brain volume. For calculating the infarct volume rate, the difference in infarct volume ratio between the model group and the corresponding administration group was divided by the infarct volume ratio of the model group.

[7] = test system: rat model of stroke induced by middle cerebral artery occlusion (MCAO); test: Rotarod test, dosing regimen (Example 4); assay type: in vivo, SD rats; settings: 10 mg/kg (table label) i.v. Bid from 30 min after infarction
Description: as §6

[8] = 10 mg/kg i.v. once 0.5 hr after infarction
[9] = 10 mg/kg i.v. once 2 hr after infarction
[10] = 10 mg/kg i.v. once 6 hr after infarction

## CCCCC1OC(=O)c2ccccc21 (centres unmarked) [Butylphthalide]
[1]; 10 mg/kg i.v. once 0.5 hr after infarction, 24 h
  Rotarod test score, Time: 151.83 s
[1]; 10 mg/kg i.v. once 0.5 hr after infarction, 48 h
  Rotarod test score, Time: 193.25 s
[1]; 10 mg/kg i.v. once 2 hr after infarction, 24 h
  Rotarod test score, Time: 124.67 s
[1]; 10 mg/kg i.v. once 2 hr after infarction, 48 h
  Rotarod test score, Time: 171.67 s
[1]; 10 mg/kg i.v. once 6 hr after infarction, 24 h
  Rotarod test score, Time: 121.42 s
[1]; 10 mg/kg i.v. once 6 hr after infarction, 48 h
  Rotarod test score, Time: 98.00 s
[2]; [8]
  Brain water content: 329.00 mg
  Brain water ratio: 81.23%
[2]; [9]
  Brain water content: 326.33 mg
  Brain water ratio: 81.25%
[2]; [10]
  Brain water content: 342.83 mg
  Brain water ratio: 82.36%
[3]; [8]
  Brain volume: 0.403 ± 0.04 mL
[3]; [9]
  Brain volume: 0.407 ± 0.02 mL
[3]; [10]
  Brain volume: 0.427 ± 0.03 mL
[4]; 24 h
  Beam-walking time: 38.91 s
[4]; 48 h
  Beam-walking time: 45.80 s
[5]; 24 h
  Rotarod test score, Time: 69.83 s
[5]; 48 h
  Rotarod test score, Time: 86.42 s
[6]; Day 0
  Beam-walking time: 23.13 s
[6]; Day 2
  Beam-walking time: 28.31 s
[6]; Day 4
  Beam-walking time: 43.23 s
[6]; Day 7
  Beam-walking time: 35.65 s
[6]; Day 14
  Beam-walking time: 16.01 s
[7]; Day 0
  Rotarod test score, Time: 124.5 s
[7]; Day 2
  Rotarod test score, Time: 126.8 s
[7]; Day 4
  Rotarod test score, Time: 122.2 s
[7]; Day 7
  Rotarod test score, Time: 130.7 s
[7]; Day 14
  Rotarod test score, Time: 157.3 s
